In PMC5193436 (PLoS ONE, 2016):

Biological target: T1, Enolase 1 (αEnolase) (Homo sapiens, UniProt P06733)
T1 construct: gene ENO1; recombinant ENO1
Test: direct spectrophotometric PEP assay ([…] nm) with purified recombinant ENO1; NADH-coupled assay in lysates
Format: biochemical

T1 sequence (P06733 2-434): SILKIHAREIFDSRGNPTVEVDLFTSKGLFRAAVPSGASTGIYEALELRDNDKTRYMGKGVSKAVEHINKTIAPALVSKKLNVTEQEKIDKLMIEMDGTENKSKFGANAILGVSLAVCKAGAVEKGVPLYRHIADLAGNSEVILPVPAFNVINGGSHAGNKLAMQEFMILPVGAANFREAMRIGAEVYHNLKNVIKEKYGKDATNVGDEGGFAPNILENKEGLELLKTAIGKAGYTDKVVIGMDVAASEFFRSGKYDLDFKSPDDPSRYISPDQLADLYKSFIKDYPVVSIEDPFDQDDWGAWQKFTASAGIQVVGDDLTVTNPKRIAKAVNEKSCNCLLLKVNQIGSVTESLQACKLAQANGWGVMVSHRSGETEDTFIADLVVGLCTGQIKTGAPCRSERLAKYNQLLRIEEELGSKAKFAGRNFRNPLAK

## O=C1C(P(=O)(O)O)CC(O)N1O (stereo not shown) [SF2312, 3-dihydroxyphosphoryl-1,5-dihydroxy-2-pyrrolidone]
  direct spectrophotometric PEP assay (240 nm) with purified recombinant ENO1; NAD: SF2312 (c) on Enolase activity in purified recombinant ENO1 and ENO2 was determined using the direct PEP-detection assay
